US8143408B2, “N-(8-heteroaryltetrahydronaphtalene-2yl) or N-(5-heteroarylchromane-3-yl) carboxamide derivatives for the treatment of pain” (AstraZeneca AB, priority 2007, dated 2012)

Target: T1, Nav1.7 voltage-gated sodium channel (Homo sapiens, UniProt Q15858)
T1 construct: Gene(s) encoding the full-length protein of the voltage-gated sodium channel of interest are cloned and expressed; expressed in transfected cells
Test: Whole-cell voltage clamp electrophysiology assay
Format: cell-based
Conditions: cells stably expressing the voltage-gated sodium channel of interest
Outline: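 Cells expressing full-length channel, exposed to drug by integrated pipetting on automated patch-clamp platforms or by microperfusion in conventional whole-cell patch clamp. Channels activated by a voltage protocol depolarising from a defined holding potential; buffers per platform manufacturer.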

T1 sequence (Q15858 whole entry): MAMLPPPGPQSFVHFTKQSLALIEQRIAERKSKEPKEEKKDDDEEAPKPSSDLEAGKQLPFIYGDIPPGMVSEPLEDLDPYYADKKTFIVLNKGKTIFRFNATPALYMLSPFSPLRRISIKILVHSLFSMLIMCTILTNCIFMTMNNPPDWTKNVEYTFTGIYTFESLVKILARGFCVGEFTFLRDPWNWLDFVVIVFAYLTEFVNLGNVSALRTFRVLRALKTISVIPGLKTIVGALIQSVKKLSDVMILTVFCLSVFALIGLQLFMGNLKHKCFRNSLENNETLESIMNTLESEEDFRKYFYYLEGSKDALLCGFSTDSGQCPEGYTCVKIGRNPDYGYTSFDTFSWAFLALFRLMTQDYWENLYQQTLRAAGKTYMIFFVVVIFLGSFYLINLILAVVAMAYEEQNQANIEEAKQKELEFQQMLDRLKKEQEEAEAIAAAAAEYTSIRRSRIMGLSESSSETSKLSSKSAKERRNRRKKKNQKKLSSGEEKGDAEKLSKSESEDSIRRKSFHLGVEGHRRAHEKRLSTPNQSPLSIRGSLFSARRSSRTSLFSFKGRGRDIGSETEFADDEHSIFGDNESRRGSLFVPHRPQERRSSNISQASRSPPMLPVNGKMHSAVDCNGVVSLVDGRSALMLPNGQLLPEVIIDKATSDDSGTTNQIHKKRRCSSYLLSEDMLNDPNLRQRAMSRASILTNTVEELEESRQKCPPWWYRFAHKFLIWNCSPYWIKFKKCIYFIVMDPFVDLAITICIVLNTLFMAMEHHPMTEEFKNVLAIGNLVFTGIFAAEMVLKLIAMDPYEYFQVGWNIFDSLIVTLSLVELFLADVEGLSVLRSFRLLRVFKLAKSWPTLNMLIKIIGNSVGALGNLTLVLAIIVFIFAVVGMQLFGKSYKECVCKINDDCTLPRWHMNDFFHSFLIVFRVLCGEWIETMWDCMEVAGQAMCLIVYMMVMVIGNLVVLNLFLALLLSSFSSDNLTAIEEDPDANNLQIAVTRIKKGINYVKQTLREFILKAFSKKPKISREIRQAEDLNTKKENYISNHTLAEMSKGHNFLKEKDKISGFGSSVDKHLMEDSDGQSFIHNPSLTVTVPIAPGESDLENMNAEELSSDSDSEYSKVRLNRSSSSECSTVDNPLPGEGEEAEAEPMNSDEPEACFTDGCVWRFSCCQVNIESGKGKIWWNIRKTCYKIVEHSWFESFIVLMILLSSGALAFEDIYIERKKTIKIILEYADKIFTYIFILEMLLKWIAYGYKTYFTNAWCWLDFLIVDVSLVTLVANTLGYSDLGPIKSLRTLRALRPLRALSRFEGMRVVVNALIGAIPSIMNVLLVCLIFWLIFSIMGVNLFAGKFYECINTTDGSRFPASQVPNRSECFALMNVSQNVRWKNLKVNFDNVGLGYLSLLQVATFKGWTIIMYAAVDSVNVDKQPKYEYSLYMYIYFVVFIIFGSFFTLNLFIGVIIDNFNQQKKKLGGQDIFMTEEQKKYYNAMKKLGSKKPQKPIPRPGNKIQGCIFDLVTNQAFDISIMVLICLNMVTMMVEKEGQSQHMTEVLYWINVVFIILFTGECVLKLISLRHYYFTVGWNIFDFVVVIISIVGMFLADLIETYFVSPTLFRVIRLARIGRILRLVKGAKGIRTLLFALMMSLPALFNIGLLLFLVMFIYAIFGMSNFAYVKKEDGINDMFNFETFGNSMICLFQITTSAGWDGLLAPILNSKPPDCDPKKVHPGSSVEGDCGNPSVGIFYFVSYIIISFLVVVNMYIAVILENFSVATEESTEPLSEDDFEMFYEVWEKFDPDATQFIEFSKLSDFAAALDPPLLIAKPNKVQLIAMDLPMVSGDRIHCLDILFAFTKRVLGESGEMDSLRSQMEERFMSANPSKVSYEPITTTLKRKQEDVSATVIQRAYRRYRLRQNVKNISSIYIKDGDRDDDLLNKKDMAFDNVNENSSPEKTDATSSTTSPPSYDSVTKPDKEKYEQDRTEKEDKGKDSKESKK

Row | IC50 | SMILES
1 | 1580 nM | COc1ncc(-c2cccc3c2C[C@H](NC(=O)c2ccc(C(=O)N(C)CC(C)C)nc2)CO3)cn1 [Example 112, N^2-isobutyl-N^5-[(3S)-5-(2-methoxypyrimidin-5-yl)-3,4-dihydro-2H-chromen-3-yl]-N^2-methylpyridine-2,5-dicarboxamide]
2 | 1000 nM | O=C(N[C@@H]1COc2cccc(-c3ccncc3)c2C1)c1ccc(OCc2nccs2)nc1 [Example 114, N-[(3S)-5-pyridin-4-yl-3,4-dihydro-2H-chromen-3-yl]-6-(1,3-thiazol-2-ylmethoxy)nicotinamide]
3 | 316 nM | Cc1cc(COc2ccc(C(=O)N[C@@H]3COc4cccc(-c5ccncc5)c4C3)cn2)no1 [Example 115, 6-[(5-methylisoxazol-3-yl)methoxy]-N-[(3S)-5-pyridin-4-yl-3,4-dihydro-2H-chromen-3-yl]nicotinamide]
4 | 2000 nM | Cn1ccnc1COc1ccc(C(=O)N[C@@H]2COc3cccc(-c4ccncc4)c3C2)cn1 [Example 116, 6-[(1-methyl-1H-imidazol-2-yl)methoxy]-N-[(3S)-5-pyridin-4-yl-3,4-dihydro-2H-chromen-3-yl]nicotinamide]
5 | 501 nM | O=C(N[C@@H]1COc2cccc(-c3ccncc3)c2C1)c1ccc(S(=O)(=O)C2CCCC2)nc1 [Example 117, 6-(cyclopentylsulfonyl)-N-[(3S)-5-pyridin-4-yl-3,4-dihydro-2H-chromen-3-yl]nicotinamide]
6 | 1580 nM | O=C(N[C@@H]1COc2cccc(-c3ccncc3)c2C1)c1ccc(OCc2ccccn2)nc1 [Example 118, N-[(3S)-5-pyridin-4-yl-3,4-dihydro-2H-chromen-3-yl]-6-(pyridin-2-ylmethoxy)nicotinamide]
7 | 2000 nM | O=C(N[C@@H]1COc2cccc(-c3ccncc3)c2C1)c1ccc(OCc2cccnc2)nc1 [Example 119, N-[(3S)-5-pyridin-4-yl-3,4-dihydro-2H-chromen-3-yl]-6-(pyridin-3-ylmethoxy)nicotinamide]
8 | 1580 nM | O=C(N[C@@H]1COc2cccc(-c3ccncc3)c2C1)c1ccc(OCc2cnccn2)nc1 [Example 120, 6-(pyrazin-2-ylmethoxy)-N-[(3S)-5-pyridin-4-yl-3,4-dihydro-2H-chromen-3-yl]nicotinamide]
9 | 5010 nM | COc1ncc(-c2cccc3c2C[C@H](NC(=O)c2ccc(OCC4CCCO4)nc2)CO3)cn1 (stereo partly drawn) [Example 121, N-[(3S)-5-(2-methoxypyrimidin-5-yl)-3,4-dihydro-2H-chromen-3-yl]-6-(tetrahydrofuran-2-ylmethoxy)nicotinamide]
10 | 2000 nM | COc1ncc(-c2cccc3c2C[C@H](NC(=O)c2ccc(OCC4CCCCO4)nc2)CO3)cn1 (stereo partly drawn) [Example 122, N-[(3S)-5-(2-methoxypyrimidin-5-yl)-3,4-dihydro-2H-chromen-3-yl]-6-(tetrahydro-2H-pyran-2-ylmethoxy)nicotinamide]
11 | 1000 nM | COc1ncc(-c2cccc3c2C[C@H](NC(=O)c2ccc(OCC4CCOCC4)nc2)CO3)cn1 [Example 123, N-[(3S)-5-(2-methoxypyrimidin-5-yl)-3,4-dihydro-2H-chromen-3-yl]-6-(tetrahydro-2H-pyran-4-ylmethoxy)nicotinamide]
12 | 158 nM | CC#CCOc1ccc(C(=O)N[C@@H]2COc3cccc(-c4cnc(OC)nc4)c3C2)cn1 [Example 124, 6-(but-2-yn-1-yloxy)-N-[(3S)-5-(2-methoxypyrimidin-5-yl)-3,4-dihydro-2H-chromen-3-yl]nicotinamide]
13 | 316 nM | COc1ncc(-c2cccc3c2C[C@H](NC(=O)c2ccc(C(=O)NCCC(F)(F)F)nc2)CO3)cn1 [Example 125, N^5-[(3S)-5-(2-methoxypyrimidin-5-yl)-3,4-dihydro-2H-chromen-3-yl]-N^2-(3,3,3-trifluoropropyl)pyridine-2,5-dicarboxamide]
14 | 2000 nM | COCCOc1ccc(C(=O)N[C@@H]2COc3cccc(-c4ccncc4)c3C2)cn1 [Example 126, 6-(2-methoxyethoxy)-N-[(3S)-5-pyridin-4-yl-3,4-dihydro-2H-chromen-3-yl]nicotinamide]
15 | 3160 nM | O=C(N[C@@H]1COc2cccc(-c3ccncc3)c2C1)c1ccc(OCC2CCO2)nc1 (stereo partly drawn) [Example 127, 6-(oxetan-2-ylmethoxy)-N-[(3S)-5-pyridin-4-yl-3,4-dihydro-2H-chromen-3-yl]nicotinamide]
16 | 1000 nM | CO[C@H](C)COc1ccc(C(=O)N[C@@H]2COc3cccc(-c4ccncc4)c3C2)cn1 [Example 128, 6-{[(2R)-2-methoxypropyl]oxy}-N-[(3S)-5-pyridin-4-yl-3,4-dihydro-2H-chromen-3-yl]nicotinamide]
17 | 200 nM | O=C(N[C@@H]1COc2cccc(-c3ccncc3)c2C1)c1ccc(OC2CCOCC2)nc1 [Example 129, N-[(3S)-5-pyridin-4-yl-3,4-dihydro-2H-chromen-3-yl]-6-(tetrahydro-2H-pyran-4-yloxy)nicotinamide]
18 | 3980 nM | O=C(N[C@@H]1COc2cccc(-c3ccncc3)c2C1)c1ccc(C(=O)NC2CCOCC2)nc1 [Example 130, N^5-[(3S)-5-pyridin-4-yl-3,4-dihydro-2H-chromen-3-yl]-N^2-(tetrahydro-2H-pyran-4-yl)pyridine-2,5-dicarboxamide]

Row | IC50 | SMILES
19 | 631 nM | O=C(N[C@@H]1COc2cccc(-c3ccncc3)c2C1)c1ccc(C(=O)NCC(F)(F)F)nc1 [Example 131, N^5-[(3S)-5-pyridin-4-yl-3,4-dihydro-2H-chromen-3-yl]-N^2-(2,2,2-trifluoroethyl)pyridine-2,5-dicarboxamide]
20 | 79.4 nM | O=C(N[C@@H]1COc2cccc(-c3cccnc3)c2C1)c1ccc(C(=O)NCCC(F)(F)F)nc1 [Example 132, N^5-[(3S)-5-pyridin-3-yl-3,4-dihydro-2H-chromen-3-yl]-N^2-(3,3,3-trifluoropropyl)pyridine-2,5-dicarboxamide]
21 | 794 nM | O=C(N[C@@H]1COc2cccc(-c3cccnc3)c2C1)c1cnc(OC2CCOCC2)cn1 [Example 133, N-[(3S)-5-pyridin-3-yl-3,4-dihydro-2H-chromen-3-yl]-5-(tetrahydro-2H-pyran-4-yloxy)pyrazine-2-carboxamide]
22 | 316 nM | COc1ccc(-c2cccc3c2C[C@H](NC(=O)c2ccc(OC4CCOCC4)nc2)CO3)cn1 [Example 134, N-[(3S)-5-(6-methoxypyridin-3-yl)-3,4-dihydro-2H-chromen-3-yl]-6-(tetrahydro-2H-pyran-4-yloxy)nicotinamide]
23 | 316 nM | COc1ccc(-c2cccc3c2C[C@H](NC(=O)c2ccc(OC4CCCOC4)nc2)CO3)cn1 (stereo partly drawn) [Example 135, N-[(3S)-5-(6-methoxypyridin-3-yl)-3,4-dihydro-2H-chromen-3-yl]-6-(tetrahydro-2H-pyran-3-yloxy)nicotinamide]
24 | 316 nM | O=C(N[C@@H]1COc2cccc(-c3ccncc3)c2C1)c1ccc(OC2CCCOC2)nc1 (stereo partly drawn) [Example 136, N-[(3S)-5-pyridin-4-yl-3,4-dihydro-2H-chromen-3-yl]-6-(tetrahydro-2H-pyran-3-yloxy)nicotinamide]
25 | 794 nM | COCCOc1ccc(C(=O)N[C@@H]2COc3cccc(-c4cccnc4)c3C2)cn1 [Example 137, 6-(2-methoxyethoxy)-N-[(3S)-5-pyridin-3-yl-3,4-dihydro-2H-chromen-3-yl]nicotinamide]
26 | 3160 nM | COCCn1nc(C)c(C(=O)N[C@@H]2COc3cccc(-c4cccnc4)c3C2)n1 [Example 138, 2-(2-methoxyethyl)-5-methyl-N-[(3S)-5-pyridin-3-yl-3,4-dihydro-2H-chromen-3-yl]-2H-1,2,3-triazole-4-carboxamide]
27 | 1580 nM | O=C(N[C@@H]1COc2cccc(-c3cccnc3)c2C1)c1ccc(OCC2CCO2)nc1 (stereo partly drawn) [Example 139, 6-(oxetan-2-ylmethoxy)-N-[(3S)-5-pyridin-3-yl-3,4-dihydro-2H-chromen-3-yl]nicotinamide]
28 | 631 nM | COCCOc1ccc(C(=O)N[C@@H]2COc3cccc(-c4ccnc(OC)c4)c3C2)cn1 [Example 140, 6-(2-methoxyethoxy)-N-[(3S)-5-(2-methoxypyridin-4-yl)-3,4-dihydro-2H-chromen-3-yl]nicotinamide]
29 | 3980 nM | COCCOc1ccc(C(=O)N[C@@H]2COc3cccc(-c4cnc(C)nc4)c3C2)cn1 [Example 141, 6-(2-methoxyethoxy)-N-[(3S)-5-(2-methylpyrimidin-5-yl)-3,4-dihydro-2H-chromen-3-yl]nicotinamide]
30 | 3160 nM | COCCOc1ccc(C(=O)N[C@@H]2COc3cccc(-c4ccncc4C)c3C2)cn1 [Example 142, 6-(2-methoxyethoxy)-N-[(3S)-5-(3-methylpyridin-4-yl)-3,4-dihydro-2H-chromen-3-yl]nicotinamide]
31 | 1580 nM | COCCOc1ccc(C(=O)N[C@@H]2COc3cccc(-c4ccc(F)nc4)c3C2)cn1 [Example 143, N-[(3S)-5-(6-fluoropyridin-3-yl)-3,4-dihydro-2H-chromen-3-yl]-6-(2-methoxyethoxy)nicotinamide]
32 | 3160 nM | COCCOc1ccc(C(=O)N[C@@H]2CCc3cccc(-c4cccnc4F)c3C2)cn1 [Example 144, N-[(2R)-8-(2-fluoropyridin-3-yl)-1,2,3,4-tetrahydronaphthalen-2-yl]-6-(2-methoxyethoxy)nicotinamide]
33 | 200 nM | O=C(N[C@@H]1CCc2cccc(-c3cccnc3F)c2C1)c1ccc(OC2CCOCC2)nc1 [Example 145, N-[(2R)-8-(2-fluoropyridin-3-yl)-1,2,3,4-tetrahydronaphthalen-2-yl]-6-(tetrahydro-2H-pyran-4-yloxy)nicotinamide]
34 | 7940 nM | O=C(N[C@@H]1CCc2cccc(-c3ccnnc3)c2C1)c1ccc(OC2CCCOC2)nc1 (stereo partly drawn) [Example 146, N-[(2R)-8-pyridazin-4-yl-1,2,3,4-tetrahydronaphthalen-2-yl]-6-(tetrahydro-2H-pyran-3-yloxy)nicotinamide]
35 | 1580 nM | Cc1ccc(-c2cccc3c2C[C@H](NC(=O)c2cnc(OC4CCCOC4)nc2)CC3)cn1 (stereo partly drawn) [Example 147, N-[(2R)-8-(6-methylpyridin-3-yl)-1,2,3,4-tetrahydronaphthalen-2-yl]-2-(tetrahydro-2H-pyran-3-yloxy)pyrimidine-5-carboxamide]
